Our source for the EC50 and CC50 values is patent publication US20200179428A1, “CYCLIC PHOSPHATE SUBSTITUTED NUCLEOSIDE DERIVATIVES AND METHODS OF USE THEREOF FOR THE TREATMENT OF VIRAL DISEASES” (priority 2016, published 2020).

Where only a bound is given, the exact number is not on record here.

One data set relates to replicon cells (1b-Con1). The data set can be described thus: Replicon activity assay (replicon RNA level by real-time RT-PCR, Taqman). The format is cell-based. The following applies: Hepatitis C virus, HCV replicon genotype 1b; read-out: EC50 (1b) Range. The method, then: (§1) To measure cell-based anti-HCV activity of the compounds of the present invention, replicon cells (1b-Con1) are seeded at 5000 cells/well in 96-well plates one day prior to treatment with a compound of the invention. Various concentrations of a test compound of the invention in DMSO are then added to the replicon cells, with the final concentration of DMSO at 0.5% and fetal bovine serum at 10% in the assay media. Cells are harvested three days post-dosing, and the replicon RNA level is determined using real-time RT-PCR (Taqman assay) with GAPDH RNA as endogenous control. EC50 values are calculated from experiments with 10 serial twofold dilutions of the inhibitor in triplicate. To measure cytotoxicity in replicon cells of an inhibitor, an MTS assay is performed according to the manufacturer's protocol for CellTiter 96 Aqueous One Solution Cell Proliferation Assay (Promega, Cat # G3580) three days post dosing on cells treated identically as in replicon activity assays. […] Cytotoxicity in other types of cells may be measured using the same MTS protocol.
Background: A replicon is a self-replicating genome or part of one, used to study replication in cells.
The term EC50 denotes the midpoint of the concentration-response curve. For the compound `CC(C)OC(=O)C(CCO[P@@]1(=O)OC[C@H]2O[C@@H](n3ccc(=O)[nH]c3=O)[C@](C)(N)[C@@H]2O1)C(C)C` (stereo partly shown) [Compound 24A], the EC50 was more than 10 µM.

As to `CC(C)OC(=O)COCCO[P@@]1(=O)OC[C@H]2O[C@@H](n3ccc(=O)[nH]c3=O)[C@](C)(N)[C@@H]2O1` [Compound 69A], the EC50 was more than 10 µM.

Consider `C#C[C@]1(C)[C@@H]2O[P@@](=O)(OCCC(CO)C(=O)OC(C)C)OC[C@H]2O[C@H]1n1ccc(=O)[nH]c1=O` (stereo partly shown) [Compound 44A], for which the EC50 was more than 10 µM.

As for `C#C[C@]1(C)[C@@H]2O[P@](=O)(OCC[C@@H](OC(C)=O)C(=O)OC(C)C)OC[C@H]2O[C@H]1n1ccc(=O)[nH]c1=O` [Compound 50B], the EC50 fell in the range of 0.25 to 1 µM.

For `CC(C)OC(=O)[C@@H](C)CCO[P@]1(=O)OC[C@H]2O[C@@H](n3cnc4c(N)ncnc43)[C@](C)(C#N)[C@@H]2O1` [Compound 71B], the EC50 was in the range of 1 to 10 µM.

For `CC(C)OC(=O)C(C)CCCO[P@]1(=O)OC[C@H]2O[C@@H](n3ccc(=O)[nH]c3=O)[C@](C)(N)[C@@H]2O1` (stereo partly shown) [Compound 34B], the EC50 is more than 10 µM.

On to `C#C[C@]1(C)[C@@H]2O[P@@](=O)(OC[C@H](NC(=O)OC)C(=O)OC(C)C)OC[C@H]2O[C@H]1n1ccc(=O)[nH]c1=O` [Compound 40A], for which the concentration giving a half-maximal response (EC50) is more than 10 µM.

`CC(C)OC(=O)C(C)(C)CCO[P@@]1(=O)OC[C@H]2O[C@@H](n3ccc(=O)[nH]c3=O)[C@](C)(N)[C@@H]2O1` [Compound 19A]: the EC50 was more than 10 µM.

In the case of `CC(C)OC(=O)C(CCO[P@]1(=O)OC[C@H]2O[C@@H](n3ccc(=O)[nH]c3=O)[C@](C)(N)[C@@H]2O1)C(C)C` (stereo partly shown) [Compound 24B], the EC50 was more than 10 µM.

Consider `CC(C)OC(=O)C1(CCO[P@@]2(=O)OC[C@H]3O[C@@H](n4ccc(=O)[nH]c4=O)[C@](C)(N)[C@@H]3O2)CC1` [Compound 27A], for which the EC50 is more than 10 µM.

As for `CC(C)OC(=O)C(CCO[P@]1(=O)OC[C@H]2O[C@@H](n3cnc4c(N)ncnc43)[C@](C)(Cl)[C@@H]2O1)C(=O)OC(C)C` [Compound 70B], the EC50 was in the range of 1 to 10 µM.

`CC(C)OC(=O)CC(F)(F)CO[P@@]1(=O)OC[C@H]2O[C@@H](n3ccc(=O)[nH]c3=O)[C@](C)(N)[C@@H]2O1` [Compound 49A]: the EC50 was more than 10 µM.

With `CC(C)OC(=O)C(C)CCOP1(=O)OC[C@H]2O[C@@H](n3ccc(=O)[nH]c3=O)[C@](C)(N)[C@@H]2O1` (single isomer, unassigned) [Compound 10A1], the EC50 is more than 10 µM.

Turning to `C#C[C@]1(C)[C@@H]2O[P@@](=O)(OCCOCC(=O)OC(C)C)OC[C@H]2O[C@H]1n1ccc(=O)[nH]c1=O` [Compound 68A], the EC50 is more than 10 µM.

For `CC(CCO[P@]1(=O)OC[C@H]2O[C@@H](n3ccc(=O)[nH]c3=O)[C@](C)(N)[C@@H]2O1)CC(=O)OC(C)C` (stereo partly shown) [Compound 21B], the EC50 is more than 10 µM.

Regarding `CCOC(=O)C1(CCO[P@@]2(=O)OC[C@H]3O[C@@H](n4ccc(=O)[nH]c4=O)[C@](C)(N)[C@@H]3O2)CC1` [Compound 28A], the EC50 was more than 10 µM.

`CO[C@H](CCO[P@@]1(=O)OC[C@H]2O[C@@H](n3ccc(=O)[nH]c3=O)[C@](C)(N)[C@@H]2O1)C(=O)OC(C)C` [Compound 45A]: the EC50 lay in the range of 1 to 10 µM.

On to `CC(C)OC(=O)[C@H](C)CCOP1(=O)OC[C@H]2O[C@@H](n3cnc4c(N)ncnc43)[C@](C)(F)[C@@H]2O1` (stereo partly shown) [Compound 88A], for which the EC50 is not above 0.25 µM.

With `C#C[C@]1(C)[C@@H]2OP(=O)(OCC(C)CC(=O)OC(C)C)OC[C@H]2O[C@H]1n1ccc(=O)[nH]c1=O` (stereo partly shown) [Compound 6B], the EC50 was 1 to 10 µM.

As for `CC(C)OC(=O)[C@@H](C)CCO[P@@]1(=O)OC[C@H]2O[C@@H](n3cnc4c(N)ncnc43)[C@](C)(N)[C@@H]2O1` [Compound 73A], the EC50 was more than 10 µM.

Tested on in another data set: not listed separately
The data set can be described thus: Cytotoxicity MTS assay (CellTiter 96 Aqueous One Solution) in replicon cells. The format is cell-based. The following applies: HCV replicon cells (1b-Con1); EDU; read-out: CC50 (EDU) Range. On the procedure: as §1
(Formazan colour is commonly taken as a measure of viable cells.)
As usually defined, the CC50 is the concentration giving 50% cytotoxicity. On to `CC(C)OC(=O)C(CCO[P@@]1(=O)OC[C@H]2O[C@@H](n3ccc(=O)[nH]c3=O)[C@](C)(N)[C@@H]2O1)C(C)C` (stereo partly shown) [Compound 24A], for which the CC50 at 3 days is more than 50 µM.

Regarding `CC(C)OC(=O)COCCO[P@@]1(=O)OC[C@H]2O[C@@H](n3ccc(=O)[nH]c3=O)[C@](C)(N)[C@@H]2O1` [Compound 69A], the CC50 at 3 days was more than 50 µM.

Take `C#C[C@]1(C)[C@@H]2O[P@@](=O)(OCCC(CO)C(=O)OC(C)C)OC[C@H]2O[C@H]1n1ccc(=O)[nH]c1=O` (stereo partly shown) [Compound 44A]: the CC50 at 3 days was more than 50 µM.

Consider `C#C[C@]1(C)[C@@H]2O[P@](=O)(OCC[C@@H](OC(C)=O)C(=O)OC(C)C)OC[C@H]2O[C@H]1n1ccc(=O)[nH]c1=O` [Compound 50B], for which the CC50 at 3 days was more than 50 µM.

With `CC(C)OC(=O)[C@@H](C)CCO[P@]1(=O)OC[C@H]2O[C@@H](n3cnc4c(N)ncnc43)[C@](C)(C#N)[C@@H]2O1` [Compound 71B], the CC50 at 3 days is more than 50 µM.

For `CC(C)OC(=O)C(C)CCCO[P@]1(=O)OC[C@H]2O[C@@H](n3ccc(=O)[nH]c3=O)[C@](C)(N)[C@@H]2O1` (stereo partly shown) [Compound 34B], the CC50 at 3 days was more than 50 µM.

In the case of `C#C[C@]1(C)[C@@H]2O[P@@](=O)(OC[C@H](NC(=O)OC)C(=O)OC(C)C)OC[C@H]2O[C@H]1n1ccc(=O)[nH]c1=O` [Compound 40A], the CC50 at 3 days was more than 50 µM.

On to `CC(C)OC(=O)C(C)(C)CCO[P@@]1(=O)OC[C@H]2O[C@@H](n3ccc(=O)[nH]c3=O)[C@](C)(N)[C@@H]2O1` [Compound 19A], for which the CC50 at 3 days was more than 50 µM.

With `CC(C)OC(=O)C(CCO[P@]1(=O)OC[C@H]2O[C@@H](n3ccc(=O)[nH]c3=O)[C@](C)(N)[C@@H]2O1)C(C)C` (stereo partly shown) [Compound 24B], the CC50 at 3 days is more than 50 µM.

Regarding `CC(C)OC(=O)C1(CCO[P@@]2(=O)OC[C@H]3O[C@@H](n4ccc(=O)[nH]c4=O)[C@](C)(N)[C@@H]3O2)CC1` [Compound 27A], the CC50 at 3 days was more than 50 µM.

As to `CC(C)OC(=O)C(CCO[P@]1(=O)OC[C@H]2O[C@@H](n3cnc4c(N)ncnc43)[C@](C)(Cl)[C@@H]2O1)C(=O)OC(C)C` [Compound 70B], the cytotoxic concentration (CC50) at 3 days is more than 50 µM.

`CC(C)OC(=O)CC(F)(F)CO[P@@]1(=O)OC[C@H]2O[C@@H](n3ccc(=O)[nH]c3=O)[C@](C)(N)[C@@H]2O1` [Compound 49A]: the CC50 at 3 days was more than 50 µM.

With `CC(C)OC(=O)C(C)CCOP1(=O)OC[C@H]2O[C@@H](n3ccc(=O)[nH]c3=O)[C@](C)(N)[C@@H]2O1` (single isomer, unassigned) [Compound 10A1], the CC50 at 3 days was more than 50 µM.

`C#C[C@]1(C)[C@@H]2O[P@@](=O)(OCCOCC(=O)OC(C)C)OC[C@H]2O[C@H]1n1ccc(=O)[nH]c1=O` [Compound 68A]: the CC50 at 3 days is more than 50 µM.

As for `CC(CCO[P@]1(=O)OC[C@H]2O[C@@H](n3ccc(=O)[nH]c3=O)[C@](C)(N)[C@@H]2O1)CC(=O)OC(C)C` (stereo partly shown) [Compound 21B], the CC50 at 3 days is more than 50 µM.

For `CCOC(=O)C1(CCO[P@@]2(=O)OC[C@H]3O[C@@H](n4ccc(=O)[nH]c4=O)[C@](C)(N)[C@@H]3O2)CC1` [Compound 28A], the CC50 at 3 days is more than 50 µM.

For the compound `CO[C@H](CCO[P@@]1(=O)OC[C@H]2O[C@@H](n3ccc(=O)[nH]c3=O)[C@](C)(N)[C@@H]2O1)C(=O)OC(C)C` [Compound 45A], the CC50 at 3 days was more than 50 µM.

As for `CC(C)OC(=O)[C@H](C)CCOP1(=O)OC[C@H]2O[C@@H](n3cnc4c(N)ncnc43)[C@](C)(F)[C@@H]2O1` (stereo partly shown) [Compound 88A], the CC50 at 3 days is more than 50 µM.

Take `C#C[C@]1(C)[C@@H]2OP(=O)(OCC(C)CC(=O)OC(C)C)OC[C@H]2O[C@H]1n1ccc(=O)[nH]c1=O` (stereo partly shown) [Compound 6B]: the CC50 at 3 days is more than 50 µM.

As to `CC(C)OC(=O)[C@@H](C)CCO[P@@]1(=O)OC[C@H]2O[C@@H](n3cnc4c(N)ncnc43)[C@](C)(N)[C@@H]2O1` [Compound 73A], the half-maximal cytotoxic concentration (CC50) at 3 days was more than 50 µM.
